One test deals with Pseudomonas aeruginosa. The experiment in a line: Antimicrobial activity against Pseudomonas aeruginosa PAO1 measured after 24 hrs by CLSI protocol based microdilution method. The class given is functional.
In test [1] the test system is Staphylococcus aureus. The experiment in a line: Antimicrobial activity against […] Staphylococcus aureus ATCC33591 measured after 24 hrs by CLSI protocol based microdilution method. Type of test: functional. A general note: In broth dilution the organism is exposed to a series of concentrations in liquid medium.
Test [2] deals with Staphylococcus aureus. The experiment in a line: Antimicrobial activity against methicillin-susceptible Staphylococcus aureus ATCC29213 measured after 24 hrs by CLSI protocol based microdilution method. The class given is functional.
The next test deals with Enterococcus faecium. The experiment in a line: Antimicrobial activity against Enterococcus faecium ATCC19434 measured after 24 hrs by CLSI protocol based microdilution method. The class given is functional.
The subject of the next test is Enterococcus faecalis. The experiment in a line: Antimicrobial activity against Enterococcus faecalis ATCC29212 measured after 24 hrs by CLSI protocol based microdilution method. The class given is functional.
Test [3] deals with Staphylococcus aureus. The experiment in a line: Antimicrobial activity against methicillin-susceptible Staphylococcus aureus ATCC25923 measured after 24 hrs by CLSI protocol based microdilution method. Type of test: functional.
For test [4], the target named is T1, Enoyl-[acyl-carrier-protein] reductase [NADPH] FabI (Staphylococcus aureus) (UniProt Q6GI75).
T1 sequence (whole entry): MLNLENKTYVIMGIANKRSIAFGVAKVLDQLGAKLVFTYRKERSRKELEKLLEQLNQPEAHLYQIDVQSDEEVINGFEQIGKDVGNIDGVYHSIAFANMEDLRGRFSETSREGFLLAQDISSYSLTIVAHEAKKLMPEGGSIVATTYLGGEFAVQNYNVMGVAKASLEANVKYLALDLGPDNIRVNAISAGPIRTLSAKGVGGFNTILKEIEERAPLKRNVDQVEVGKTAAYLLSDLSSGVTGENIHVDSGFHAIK
The experiment in a line: Inhibition of N-terminal his 6 tagged Staphylococcus aureus Fabi (1 to […] residues) expressed in Escherichia coli BL21 at 10 uM incubated for 30 mins in presence of NADPH by fluorescence based microplate reader analysis relative to control.

Test [5] relates to Staphylococcus aureus. The experiment in a line: Antimicrobial activity against […] Staphylococcus aureus NRS271 measured after 24 hrs by CLSI protocol based microdilution method. Type of test: functional.
Test [6] has as its system Staphylococcus aureus. The experiment in a line: Antimicrobial activity against […] Staphylococcus aureus ATCC43300 measured after 24 hrs by CLSI protocol based microdilution method. The class given is functional.
In another test the test system is Candida albicans. The experiment in a line: Antimicrobial activity against Candida albicans SC5314 measured after 48 hrs by CLSI protocol based microdilution method. Type of test: functional.
For a further test, the system named is Acinetobacter baumannii. The experiment in a line: Antimicrobial activity against Acinetobacter baumannii ATCC19606 measured after 24 hrs by CLSI protocol based microdilution method. Type of test: functional.
Test [7] has as its target T1, Enoyl-[acyl-carrier-protein] reductase [NADPH] FabI (Staphylococcus aureus). The experiment in a line: Inhibition of N-terminal his 6 tagged Staphylococcus aureus Fabi (1 to […] residues) expressed in Escherichia coli BL21 at 1 uM incubated for 30 mins in presence of NADPH by fluorescence based microplate reader analysis relative to control.
The test system of the next test is Escherichia coli. The experiment in a line: Antimicrobial activity against Escherichia coli ATCC25922 measured after 24 hrs by CLSI protocol based microdilution method. The class given is functional.
In test [8] the test system is Staphylococcus aureus. The experiment in a line: Antimicrobial activity against […] Staphylococcus aureus USA300 measured after 24 hrs by CLSI protocol based microdilution method. The class given is functional.

Where only a bound is given, the exact number is not on record here.

For orientation: MIC means the smallest concentration in the dilution series that meets the test's criterion for growth inhibition. Read a low MIC as inhibition by little substance. For orientation: inhibition means the drop in the measured response relative to a control, in per cent.

On to `COc1cccc(N2CC(c3nc4ccccc4n3C)CC2=O)c1OC` (stereo unspecified), for which the minimal inhibitory concentration (MIC) in the test with Pseudomonas aeruginosa, with Staphylococcus aureus [1], against Staphylococcus aureus [2], against Enterococcus faecium, in the test with Enterococcus faecalis and against Staphylococcus aureus [3] was over 32 µg/mL throughout. Further, the minimal inhibitory concentration (MIC) against Staphylococcus aureus [5], in the test on Staphylococcus aureus [6], against Candida albicans, in the test on Acinetobacter baumannii, with Escherichia coli and in the test on Staphylococcus aureus [8] was over 32 µg/mL each time. Moreover, the inhibition is 45.2% in test [4] and 3.8% in test [7].
Regarding `Cn1c(C2CC(=O)N(CCc3ccccc3)C2)nc2ccccc21` (stereo unspecified), the MIC against Pseudomonas aeruginosa, in the test on Staphylococcus aureus [1], with Staphylococcus aureus [2], in the test with Enterococcus faecium, with Enterococcus faecalis and in the test on Staphylococcus aureus [3] was over 32 µg/mL throughout. Also, the MIC in the test with Staphylococcus aureus [5], against Staphylococcus aureus [6], with Candida albicans, in the test with Acinetobacter baumannii, against Escherichia coli and in the test on Staphylococcus aureus [8] was over 32 µg/mL in each case. In addition, the inhibition was determined as 3.9% in test [4] and 5.8% in test [7].
Take `Cn1c(CCC(=O)Nc2ccccc2)nc2ccccc21`: the MIC in the test with Pseudomonas aeruginosa, with Staphylococcus aureus [1], against Staphylococcus aureus [2], in the test with Enterococcus faecium, against Enterococcus faecalis and in the test on Staphylococcus aureus [3] was over 32 µg/mL in each case. The MIC in the test on Staphylococcus aureus [5], in the test on Staphylococcus aureus [6], against Candida albicans, in the test with Acinetobacter baumannii, with Escherichia coli and against Staphylococcus aureus [8] was over 32 µg/mL in each case. The inhibition in test [4] came out at 7.8%; in [7], 7.7%.
For `Cn1c(C2CC(=O)N(c3cccc(-c4ccccc4)c3)C2)nc2ccccc21` (stereo unspecified), the minimal inhibitory concentration (MIC) against Pseudomonas aeruginosa, in the test with Staphylococcus aureus [1], in the test on Staphylococcus aureus [2], in the test with Enterococcus faecium, against Enterococcus faecalis and in the test on Staphylococcus aureus [3] was over 32 µg/mL in each case. For the same molecule, the MIC against Staphylococcus aureus [5], against Staphylococcus aureus [6], with Candida albicans, in the test with Acinetobacter baumannii, in the test with Escherichia coli and with Staphylococcus aureus [8] was over 32 µg/mL each time. Further, the inhibition in [4] turned out to be 10.1%; in [7], 3.5%.
With `Cc1c(N)cccc1N1CC(c2nc3ccccc3n2C)CC1=O` (stereo unspecified), the MIC in the test on Pseudomonas aeruginosa, against Staphylococcus aureus [1], with Staphylococcus aureus [2], against Enterococcus faecium, against Enterococcus faecalis and against Staphylococcus aureus [3] was over 32 µg/mL in each case. Moreover, the MIC in the test with Staphylococcus aureus [5], in the test with Staphylococcus aureus [6], against Candida albicans, in the test with Acinetobacter baumannii, with Escherichia coli and in the test with Staphylococcus aureus [8] was over 32 µg/mL in each case. Also, the inhibition in [4] stood at 50.2%; in test [7], 6.1%.
For the molecule `Cc1cccc(N2CCC(c3nc4ccccc4n3C)CC2)c1C`, the minimum inhibitory concentration (MIC) against Pseudomonas aeruginosa, against Staphylococcus aureus [1], with Staphylococcus aureus [2], in the test with Enterococcus faecium, against Enterococcus faecalis and in the test with Staphylococcus aureus [3] was over 32 µg/mL throughout. The minimum inhibitory concentration (MIC) in the test with Staphylococcus aureus [5], with Staphylococcus aureus [6], with Candida albicans, against Acinetobacter baumannii, in the test with Escherichia coli and against Staphylococcus aureus [8] was over 32 µg/mL in each case. In addition, the inhibition in [4] amounted to 2%; in [7], 2.8%.
Take `Cn1c(C2CC(=O)N(c3cccc(Br)c3OCC(F)(F)F)C2)nc2ccccc21` (stereo unspecified): the MIC against Pseudomonas aeruginosa, in the test with Staphylococcus aureus [1], with Staphylococcus aureus [2], in the test on Enterococcus faecium, with Enterococcus faecalis and in the test with Staphylococcus aureus [3] was over 32 µg/mL throughout. The minimal inhibitory concentration (MIC) in the test on Staphylococcus aureus [5], against Staphylococcus aureus [6], in the test with Candida albicans, in the test on Acinetobacter baumannii, against Escherichia coli and in the test on Staphylococcus aureus [8] was over 32 µg/mL each time. The inhibition in [4] was 18.8%; in test [7], 2.1%.
Take `Cc1cccc(NC(=O)CCc2nc3ccccc3n2C)c1C`: the MIC with Pseudomonas aeruginosa, against Staphylococcus aureus [1], in the test with Staphylococcus aureus [2], in the test with Enterococcus faecium, in the test with Enterococcus faecalis and against Staphylococcus aureus [3] was over 32 µg/mL in each case. The MIC in the test with Staphylococcus aureus [5], in the test on Staphylococcus aureus [6], in the test on Candida albicans, with Acinetobacter baumannii, in the test on Escherichia coli and in the test with Staphylococcus aureus [8] was over 32 µg/mL in each case. Further, the inhibition in test [4] was found to be 10%; in [7], 4.5%.
`CC(=O)c1ccc(N2CC(c3nc4ccccc4n3C)CC2=O)cc1Cl` (stereo unspecified): the MIC in the test on Pseudomonas aeruginosa, against Staphylococcus aureus [1], against Staphylococcus aureus [2], with Enterococcus faecium, against Enterococcus faecalis and in the test on Staphylococcus aureus [3] was over 32 µg/mL throughout. Besides, the minimal inhibitory concentration (MIC) in the test on Staphylococcus aureus [5], in the test on Staphylococcus aureus [6], against Candida albicans, in the test with Acinetobacter baumannii, against Escherichia coli and in the test on Staphylococcus aureus [8] was over 32 µg/mL each time. The inhibition in test [4] turned out to be 3.8%; in [7] it was 5.5%.
In the case of `Cn1ccc(N2CC(c3nc4ccccc4n3C)CC2=O)n1` (stereo unspecified), the MIC in the test with Pseudomonas aeruginosa, against Staphylococcus aureus [1], in the test on Staphylococcus aureus [2], with Enterococcus faecium, with Enterococcus faecalis and against Staphylococcus aureus [3] was over 32 µg/mL throughout. In addition, the MIC against Staphylococcus aureus [5], against Staphylococcus aureus [6], in the test with Candida albicans, against Acinetobacter baumannii, in the test with Escherichia coli and against Staphylococcus aureus [8] was over 32 µg/mL throughout. Also, the results for the inhibition in test [4] and in test [7] were 4.3% and 5.1%, respectively.
`Cn1c(C2CC(=O)N(C3CCCCC3)C2)nc2ccccc21` (stereo unspecified): the MIC in the test with Pseudomonas aeruginosa, with Staphylococcus aureus [1], in the test with Staphylococcus aureus [2], in the test on Enterococcus faecium, against Enterococcus faecalis and with Staphylococcus aureus [3] was over 32 µg/mL in each case. For the same molecule, the MIC against Staphylococcus aureus [5], against Staphylococcus aureus [6], against Candida albicans, against Acinetobacter baumannii, against Escherichia coli and in the test on Staphylococcus aureus [8] was over 32 µg/mL throughout. The inhibition in test [4] worked out at 43.7%; in test [7], 3.2%.
Consider `Cn1c(C(=O)NCCC(=O)NCc2ccccc2)nc2ccccc21`, for which the MIC against Pseudomonas aeruginosa, in the test with Staphylococcus aureus [1], with Staphylococcus aureus [2], in the test on Enterococcus faecium, against Enterococcus faecalis and in the test with Staphylococcus aureus [3] was over 32 µg/mL in each case. For the same molecule, the minimal inhibitory concentration (MIC) against Staphylococcus aureus [5], in the test with Staphylococcus aureus [6], with Candida albicans, in the test with Acinetobacter baumannii, in the test with Escherichia coli and in the test on Staphylococcus aureus [8] was over 32 µg/mL in each case. Further, the inhibition in test [4] came out at 8.6%; in test [7], 5.7%.
For the molecule `Cn1c(C2CC(=O)N(c3ccc(Cl)cc3)C2)nc2ccccc21` (stereo unspecified), the MIC in the test on Pseudomonas aeruginosa, in the test with Staphylococcus aureus [1], with Staphylococcus aureus [2], against Enterococcus faecium, against Enterococcus faecalis and in the test on Staphylococcus aureus [3] was over 32 µg/mL throughout. Further, the minimum inhibitory concentration (MIC) against Staphylococcus aureus [5], against Staphylococcus aureus [6], against Candida albicans, in the test on Acinetobacter baumannii, in the test with Escherichia coli and against Staphylococcus aureus [8] was over 32 µg/mL throughout. Moreover, the inhibition in test [4] was determined as 35.7%; in test [7], 2.2%.
For `Cn1c(CCC(=O)NCCNC(=O)Cc2ccccc2)nc2ccccc21`, the minimal inhibitory concentration (MIC) in the test on Pseudomonas aeruginosa, in the test on Staphylococcus aureus [1], against Staphylococcus aureus [2], with Enterococcus faecium, in the test with Enterococcus faecalis and against Staphylococcus aureus [3] was over 32 µg/mL throughout. In addition, the MIC with Staphylococcus aureus [5], against Staphylococcus aureus [6], in the test on Candida albicans, against Acinetobacter baumannii, against Escherichia coli and against Staphylococcus aureus [8] was over 32 µg/mL throughout. Moreover, the results for the inhibition in test [4] and in test [7] were 21.4% and 3.6%, respectively.

(Values after ChEMBL document CHEMBL5500393, “Discovery and Optimization of Novel SaFabI Inhibitors as Specific Therapeutic Agents for MRSA Infection” (J Med Chem, 2024).)
